Entries after “also recorded” stand apart in the source; their conditions may differ.
Test: Hepatic retinoic acid levels after long-term treatment
Assay type: in vivo, mouse
Conditions: all groups
Procedure: To evaluate the safety of long-term administration of 9-cis-R-Ac, A2E accumulation was measured (FIG. 6A), because retinals spontaneously condense to this compound (Mata, N. L., Weng, J. & Travis, G. H. Proceedings of the National Academy of Sciences of the United States of America 97, 7154-7159 (2000); Parish, C. A., Hashimoto, M., Nakanishi, K., Dillon, J. & Sparrow, J. Proceedings of the National Academy of Sciences of the United States of America 95, 14609-14613 (1998)).
Analysis of retinoic acid in the liver was carried out as described before (Batten, M. L., et al. PLoS Medicine 2, e333 (2005)) by an Agilent 1100 HPLC with two tandem normal phase columns: a Varian Microsorb Silica 3 μm, 4.6×100 mm (Varian, Palo Alto, Calif.) and an Ultrasphere-Si, 5 μm, 4.6×250 mm column. An isocratic solvent system of 1000:4.3:0.675 hexane:2-propanol:glacial acetic acid (v/v) was used at a flow rate of 1 ml/min at 20° C. with detection at 355 nm. Calibration was done with standards of all-trans-RA and 9-cis-RA purchased from Sigma-Aldrich.

CC(=O)OC/C=C(C)/C=C/C=C(C)\C=C\C1=C(C)CCCC1(C)C [9-cis-R-Ac, 9-cis-retinyl acetate]
hepatic retinoic acid levels: below detectable levels; also recorded: did not accumulate

Source: patent publication US9855239B2, “Methods for the treatment and prevention of age-related retinal dysfunction” (University of Washington, priority 2008, dated 2018)
